The assay concerns the target BTK (Homo sapiens (Human), UniProt Q06187). The assay can be described thus: ADP-Glo kinase biochemical assay, IC50 determination of BTK inhibitors. To be noted: ADP-Glo, ATP 50 uM; values given as bins. As for the experimental part: Biological Properties: IC50 Determination of BTK Inhibitors in ADP-Glo Kinase Biochemical Assay
Those skilled in the art will appreciate that a variety of assay formats may be used to determine the activity of the compounds described herein.
ADP-Glo™ Kinase Assay (Cat. V9102, 10000 Tests), Components: • 1×50 ml ADP-Glo™ Reagent, • 1×100 ml Kinase Detection Buffer, • 1× Kinase Detection Substrate (Lyophilized), • 1×5 ml Ultra Pure ATP, 10 mM • 1×5 ml ADP, 10 mM
• Enzyme concentration: 8 ng/5 ul. • ATP concentration: 50 uM • Substrate (peptide) concentration: 0.2 mg/ml. • Reaction buffer composition: 40 mM Tris-HCl pH7.5, 10 mM MgCl2, 2 mM MnCl2, 0.1 mg/mL BSA, 0.05 mM DTT. • Test compound concentration: DMSO≤0.5%. Methods: Compound Dosage Gradient Solution Preparation: […]
1× and 2× assay buffer were made at first. BTK kinase was diluted with 1× assay buffer but substrate was diluted with 2× assay buffer. 1 ul of diluted compound was transferred into 384-well assay plate, and then 2.0 ul of enzyme solution was added, and spun at 2000 rpm for 1 min. This mixture was incubated at 24° C. for 30 mins. 2 ul of peptide substrate/ATP mixture was added into the assay plate to start the reaction. The mixture was mixed thoroughly and then the 384-well plate was spun and incubated at 24° C. for 60 mins. 5.0 ul of ADP-Glo Reagent was added to stop the kinase activity and deplete the ATP unconsumed, and the plate was mixed thoroughly and incubated at 24° C. for 40 min. Then, 10.0 ul of Kinase Detection reagent was added, and the plate was centrifuged and then kept at 24° C. for 30 min. The luminescence signal was read on Envision.
IC50 values of compounds were calculated from a 4-parameter fit using Equation (2): Y=Bottom+(TOP-Bottom)/(1+((C/X)^hillslope)) Equation (2)
In Equation 2, Y represents % inhibition, X is the log value of the test compound concentration. IC50 was the concentration of compound where half of maximal inhibition was achieved.
All data was analyzed with IDBS XLfit5 software (ID Business Solutions Ltd., UK).

Sequence of BTK (Q06187 whole entry): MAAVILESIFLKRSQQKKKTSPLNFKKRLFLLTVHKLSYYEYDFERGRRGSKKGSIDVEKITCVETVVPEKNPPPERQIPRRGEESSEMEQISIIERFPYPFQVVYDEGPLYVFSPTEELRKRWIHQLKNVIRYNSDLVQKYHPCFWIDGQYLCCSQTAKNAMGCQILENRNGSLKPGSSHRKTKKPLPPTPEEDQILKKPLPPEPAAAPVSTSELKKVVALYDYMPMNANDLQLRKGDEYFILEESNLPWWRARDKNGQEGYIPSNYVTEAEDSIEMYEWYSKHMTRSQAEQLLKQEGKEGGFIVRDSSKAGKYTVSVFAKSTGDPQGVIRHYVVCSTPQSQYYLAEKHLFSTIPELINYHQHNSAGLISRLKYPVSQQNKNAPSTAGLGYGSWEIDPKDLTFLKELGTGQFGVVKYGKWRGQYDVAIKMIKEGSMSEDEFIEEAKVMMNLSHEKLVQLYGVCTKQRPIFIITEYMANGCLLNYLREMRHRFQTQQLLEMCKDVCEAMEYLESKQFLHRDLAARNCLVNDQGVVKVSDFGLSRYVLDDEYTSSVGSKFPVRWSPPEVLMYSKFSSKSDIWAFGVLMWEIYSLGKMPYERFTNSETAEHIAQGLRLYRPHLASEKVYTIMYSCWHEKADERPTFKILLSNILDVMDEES

In general, IC50 refers to the concentration that gives 50% inhibition. Read a high IC50 as a need for much substance. In turn, `C=CC(=O)N1CCN(c2nc(-c3ccc(Oc4ccccc4)cc3)c(C(=O)NC)s2)CC1` [Example 47, 2-(4-acryloylpiperazin-1-yl)-N-methyl-4-(4-phenoxyphenyl)thiazole-5-carboxamide] came in with an IC50 of less than 500 nM.

With `C=CC(=O)N1CCN(c2ccc(C(N)=O)c(-c3ccc(Oc4ccc(C#N)cc4)cc3)n2)CC1` [Example 27, 6-(4-acryloylpiperazin-1-yl)-2-(4-(4-cyanophenoxy)phenyl)nicotinamide], the IC50 was not below 1000 nM.

Molecule `C=CC(=O)N1CC(n2cc(C(N)=O)c(-c3ccc(Oc4ccccc4)cc3)n2)C1` [Example 15, 1-(1-acryloylazetidin-3-yl)-3-(4-phenoxyphenyl)-1H-pyrazole-4-carboxamide] showed an IC50 of less than 500 nM.

As to `N#C/C(=C\C1CC1)C(=O)N1CC(n2cc(C(N)=O)c(-c3ccc(Oc4ccccc4)cc3)n2)C1` [Example 53, (E)-1-(1-(2-cyano-3-cyclopropylacryloyl)azetidin-3-yl)-3-(4-phenoxyphenyl)-1H-pyrazole-4-carboxamide], the IC50 is not below 1000 nM.

In turn, `C=CC(=O)N1CCCC(c2nc(C(N)=O)c(-c3ccc(Oc4ccccc4)cc3)o2)C1` (stereo not shown) [Example 54, 2-(1-acryloylpiperidin-3-yl)-5-(4-phenoxyphenyl)oxazole-4-carboxamide] returned an IC50 of less than 500 nM.

The molecule `C=CC(=O)N1CCC(c2ccc(C(N)=O)c(-c3ccc(C(O)c4ccccc4)cc3)n2)CC1` (stereo not shown) [Example 58, 6-(1-acryloylpiperidin-4-yl)-2-(4-(hydroxy(phenyl)methyl)phenyl)nicotinamide] gave an IC50 of less than 500 nM.

`NC(=O)c1cn(-c2cccc(N)c2)nc1-c1ccc(Oc2ccccc2)cc1` [Example 17, 1-(3-aminophenyl)-3-(4-phenoxyphenyl)-1H-pyrazole-4-carboxamide] had an IC50 of less than 500 nM.

On to `C=CC(=O)N1CCN(c2ccc(C(N)=O)c(-c3ccc(Oc4ccccc4)cc3)c2)CC1` [Example 57, 5-(4-acryloylpiperazin-1-yl)-4′-phenoxybiphenyl-2-carboxamide], for which the IC50 was less than 500 nM.

The molecule `C=CC(=O)N1CCN(c2ccc(C(N)=O)c(-c3ccc(Oc4ccccc4)c(F)c3)n2)CC1` [Example 36, 6-(4-acryloylpiperazin-1-yl)-2-(3-fluoro-4-phenoxyphenyl)nicotinamide] returned an IC50 of less than 500 nM.

`C=CC(=O)N1CCCC(c2ccc(C(N)=O)c(-c3ccc(Oc4ccccc4)cc3)n2)C1` (stereo not shown) [Example 8, 6-(1-acryloylpiperidin-3-yl)-2-(4-phenoxyphenyl)nicotnamide] displayed an IC50 of less than 500 nM.

`C=CC(=O)N1CCC(c2nc(-c3ccc(Oc4ccccc4)cc3)c(C(N)=O)o2)C1` (stereo not shown) [Example 43, 2-(1-acryloylpyrrolidin-3-yl)-4-(4-phenoxyphenyl)oxazole-5-carboxamide] gave an IC50 of less than 500 nM.

The molecule `C=CC(=O)N1CCC(c2ncc(C(N)=O)c(-c3ccc(Oc4ccccc4)cc3)n2)CC1` [Example 21, 2-(1-acryloylpiperidin-4-yl)-4-(4-phenoxyphenyl)pyrimidine-5-carboxamide] showed an IC50 of less than 500 nM.

`NC(=O)c1cn(C2CNC2)nc1-c1ccc(Oc2ccccc2)cc1` [Example 14, 1-(azetidin-3-yl)-3-(4-phenoxyphenyl)-1H-pyrazole-4-carboxamide] yielded an IC50 not below 1000 nM.

`C=CC(=O)N1CCN(c2ccc(C(N)=O)c(-c3ccc(OC4CCCCC4)cc3)n2)CC1` [Example 28, 6-(4-acryloylpiperazin-1-yl)-2-(4-(cyclohexyloxy)phenyl)nicotinamide] gave an IC50 of less than 500 nM.

`C=CC(=O)N1CCN(c2ccc(C(=O)O)c(-c3ccc(Oc4ccccc4)cc3)n2)CC1` [Example 26, 6-(4-acryloylpiperazin-1-yl)-2-(4-phenoxyphenyl)pyridine-3-carboxylic acid] came in with an IC50 of less than 500 nM.

Molecule `C=CC(=O)N1CCN(c2ccc(C(N)=O)c(-c3ccc(Oc4ccccc4F)cc3)n2)CC1` [Example 38, 6-(4-acryloylpiperazin-1-yl)-2-(4-(2-fluorophenoxy)phenyl)nicotinamide] came in with an IC50 of less than 500 nM.

In the case of `C=CC(=O)N1CC[C@@H](n2cc(C(N)=O)c(-c3ccc(Oc4ccccc4)cc3)n2)C1` [Example 20, (R)-1-(1-acryloylpyrrolidin-3-yl)-3-(4-phenoxyphenyl)-1H-pyrazole-4-carboxamide], the IC50 is less than 500 nM.

As for `C=CC(=O)N1CCN(c2ccc(C(N)=O)c(-c3ccc(Oc4ccccn4)cc3)n2)CC1` [Example 32, 6-(4-acryloylpiperazin-1-yl)-2-(4-(pyridin-2-yloxy)phenyl)nicotinamide], the IC50 was less than 500 nM.

As for `C=CC(=O)N1CCN(c2ccc(C(N)=O)c(-c3ccc(C)c(OC)c3)n2)CC1` [Example 29, 6-(4-acryloylpiperazin-1-yl)-2-(3-methoxy-4-methylphenyl)nicotinamide], the IC50 was less than 500 nM.

`NC(=O)c1ccc(C2CCNCC2)nc1-c1ccc(Oc2ccccc2)cc1` [Example 2, 2-(4-phenoxyphenyl)-6-(piperidin-4-yl)nicotinamide] displayed an IC50 not below 1000 nM.

`C=CC(=O)NC1CCN(c2ccc(C(N)=O)c(-c3ccc(Oc4ccccc4)cc3)n2)CC1` [Example 9, 6-(4-acrylamidopiperidin-1-yl)-2-(4-phenoxyphenyl)nicotinamide] came in with an IC50 of 500 to 1000 nM.

For `C=CC(=O)Nc1ccc(-n2cc(C(N)=O)c(-c3ccc(Oc4ccccc4)cc3)n2)cc1` [Example 16, 1-(4-acrylamidophenyl)-3-(4-phenoxyphenyl)-1H-pyrazole-4-carboxamide], the IC50 was less than 500 nM.

Molecule `C=CC(=O)N1CCN(c2ccc(C(N)=O)c(-c3ccc(OC4CCC(F)(F)CC4)cc3)n2)CC1` [Example 60, 6-(4-acryloylpiperazin-1-yl)-2-(4-((4,4-difluorocyclohexyl)oxy)phenyl)nicotinamide] displayed an IC50 of less than 500 nM.

Consider `C=CC(=O)N1CCC(c2nc(C(N)=O)c(-c3ccc(Oc4ccccc4)cc3)o2)C1` (stereo not shown) [Example 48, 2-(1-acryloylpyrrolidin-3-yl)-5-(4-phenoxyphenyl)oxazole-4-carboxamide], for which the IC50 was less than 500 nM.

`C=CC(=O)N1CCC(c2ccc(C#N)c(-c3ccc(Oc4ccccc4)cc3)n2)CC1` [Example 24, 6-(1-acryloylpiperidin-4-yl)-2-(4-phenoxyphenyl)pyridine-3-carbonitrile]: the IC50 lay within 500 to 1000 nM.

`C=CC(=O)N1CCC(c2nc(-c3ccc(Oc4ccccc4)cc3)c(C(N)=O)o2)CC1` [Example 46, 2-(1-acryloylpiperidin-4-yl)-4-(4-phenoxyphenyl)oxazole-5-carboxamide] had an IC50 of less than 500 nM.

`C=CC(=O)N1CCN(c2nc(-c3ccc(Oc4ccccc4)cc3)c(C(N)=O)s2)CC1` [Example 51, 2-(4-acryloylpiperazin-1-yl)-4-(4-phenoxyphenyl)thiazole-5-carboxamide] returned an IC50 of less than 500 nM.

As for `C=CC(=O)N1CCCC(c2nc(-c3ccc(Oc4ccccc4)cc3)c(C(N)=O)s2)C1` (stereo not shown) [Example 40, 2-(1-acryloylpiperidin-3-yl)-4-(4-phenoxyphenyl)thiazole-5-carboxamide], the IC50 is less than 500 nM.

Take `C/C=C(\C#N)C(=O)N1CC(n2cc(C(N)=O)c(-c3ccc(Oc4ccccc4)cc3)n2)C1` [Example 59, (E)-1-(1-(2-cyanobut-2-enoyl)azetidin-3-yl)-3-(4-phenoxyphenyl)-1H-pyrazole-4-carboxamide]: the half-inhibitory concentration (IC50) is less than 500 nM.

Molecule `CN(C)C/C=C/C(=O)N1CCC(n2cc(C(N)=O)c(-c3ccc(Oc4ccccc4)cc3)n2)C1` (stereo not shown) [Example 34, 1-(1-(4-(dimethylamino)but-2-enoyl)pyrrolidin-3-yl)-3-(4-phenoxyphenyl)-1H-pyrazole-4-carboxamide] showed an IC50 of less than 500 nM.

On to `C=CS(=O)(=O)N1CCC(c2ccc(C(N)=O)c(-c3ccc(Oc4ccccc4)cc3)n2)CC1` [Example 63, 2-(4-phenoxyphenyl)-6-(1-(vinylsulfonyl)piperidin-4-yl)nicotinamide], for which the IC50 is less than 500 nM.

`C=CC(=O)N1CC[C@H](n2cc(C(N)=O)c(-c3ccc(Oc4ccccc4)cc3)n2)C1` [Example 19, (S)-1-(1-acryloylpyrrolidin-3-yl)-3-(4-phenoxyphenyl)-1H-pyrazole-4-carboxamide] came in with an IC50 of less than 500 nM.

The molecule `CN(C)C/C=C/C(=O)N1CCN(c2ccc(C(N)=O)c(-c3ccc(Oc4ccccc4)cc3)n2)CC1` [Example 25, (E)-6-(4-(4-(dimethylamino)but-2-enoyl)piperazin-1-yl)-2-(4-phenoxyphenyl)nicotinamide] returned an IC50 of less than 500 nM.

Molecule `C=CC(=O)N1CCN(c2ccc(C(N)=O)c(-c3ccc(Oc4ccc(F)cc4)cc3)n2)CC1` [Example 37, 6-(4-acryloylpiperazin-1-yl)-2-(4-(4-fluorophenoxy)phenyl)nicotinamide] came in with an IC50 of less than 500 nM.

(Values after patent publication US9951056B2, “Substituted nicotinamide inhibitors of BTK and their preparation and use in the treatment of cancer, inflammation and autoimmune disease” (BEIJING INNOCARE PHARMA TECH CO., LTD., priority 2013, dated 2018).)
